Experimental data: ChEMBL document CHEMBL3244324, “Synthesis of analogues of N-(2-chloroethyl)-N'-(trans-4-methylcyclohexyl)-N-nitrosourea for evaluation as anticancer agents” (J Med Chem, 1977)

Columns and labels:
[1] = test system: Mus musculus; test: Toxicity in ip dosed BDF1 mouse; format: organism-based; details: in vivo
[2] = test system: L1210; test: Antitumor activity against mouse L1210 cells allografted in ip dosed BDF1 mouse assessed as increase of life span of host measured up to 45 days; format: functional; details: 1080 h
[3] = Therapeutic index, ratio of LD10 for BDF1 mouse to ED50 for mouse L1210 cells allografted in ip dosed BDF1 mouse; format: organism-based; details: in vivo, read-out: TI
[4] = Octanol-water partition coefficient, log P of the compound; format: physicochemical
[5] = Octanol-water partition coefficient, log P of the compound at pH 7.4; format: physicochemical

For `C[C@@H]1CCC[C@H](NC(=O)N(CCCl)N=O)C1` (relative stereo), the LD10 [1] was 120 mg/kg, the ED50 [2] was 45 mg/kg and the selectivity ratio [3] was 0.38. It also gave a logP ([4]; read-out: logP) of 3.3.
With `C[C@H]1CC[C@H](NC(=O)N(CCCl)N=O)CC1` the LD10 [1] was 42 mg/kg, the ED50 [2] was 18 mg/kg and the selectivity ratio [3] was 0.43. It also gave a logP ([4]; read-out: logP) of 3.3.
For `O=NN(CCCl)C(=O)NCCCl` [CARMUSTINE], the LD10 [1] was 41 mg/kg, the ED50 [2] was 20 mg/kg and the selectivity ratio [3] was 0.49. For the same molecule, the logP ([4]; read-out: logP) was 1.5.
Work on `O=NN(CCCl)C(=O)N[C@H]1CC[C@H](NC(=O)N(CCCl)N=O)CC1` yielded an LD10 [1] of 270 mg/kg, an ED50 [2] of 71 mg/kg and a selectivity ratio [3] of 0.26. For the same molecule, the logP ([4]; read-out: logP) was 2.7.
`O=NN(CCCl)C(=O)N[C@H]1CC[C@H](CCl)CC1` showed an LD10 [1] of 62 mg/kg, an ED50 [2] of 43 mg/kg and a selectivity ratio [3] of 0.69. It also gave a logP ([4]; read-out: logP) of 3.7.
`COC(=O)[C@H]1CC[C@H](NC(=O)N(CCCl)N=O)CC1` gave an LD10 [1] of 26 mg/kg, an ED50 [2] of 14 mg/kg and a selectivity ratio [3] of 0.54. For the same molecule, the logP ([4]; read-out: logP) was 2.6.
In the case of `C[C@H]1S(=O)(=O)C[C@H](NC(=O)N(CCCl)N=O)CS1(=O)=O`, the LD10 [1] is reported as 51 mg/kg, the ED50 [2] is reported as 19 mg/kg and the selectivity ratio [3] is reported as 0.37. The logP ([4]; read-out: logP) was -0.4.
For `O=NN(CCCl)C(=O)N[C@H]1CC[C@@H](O)CC1`, the LD10 [1] was 46 mg/kg, the ED50 [2] was 22 mg/kg and the selectivity ratio [3] was 0.48. For the same molecule, the logP ([4]; read-out: logP) was 1.1.
With `O=NN(CCCl)C(=O)N[C@H]1CCC[C@@H](C(=O)O)C1` (relative stereo) the LD10 [1] was 34 mg/kg, the ED50 [2] was 21 mg/kg and the selectivity ratio [3] was 0.62. The logD [5] was -1.1.
`O=NN(CCCl)C(=O)N[C@H]1CCCC[C@@H]1Cl` (relative stereo) gave an LD10 [1] of 57 mg/kg, an ED50 [2] of 36 mg/kg and a selectivity ratio [3] of 0.63. It also gave a logP ([4]; read-out: logP) of 2.7.
With `O=COC[C@H]1CC[C@H](NC(=O)N(CCCl)N=O)CC1` the LD10 [1] was 22 mg/kg, the ED50 [2] was 10 mg/kg and the selectivity ratio [3] was 0.45. The logP ([4]; read-out: logP) was 2.6.
For `CC(=O)OC[C@H]1CC[C@H](NC(=O)N(CCCl)N=O)CC1`, the LD10 [1] was 28 mg/kg, the ED50 [2] was 14 mg/kg and the selectivity ratio [3] was 0.5. For the same molecule, the logP ([4]; read-out: logP) was 3.1.
In the case of `CCOC(=O)[C@@H]1CCC[C@H](NC(=O)N(CCCl)N=O)C1` (relative stereo), the LD10 [1] is reported as 50 mg/kg, the ED50 [2] is reported as 28 mg/kg and the selectivity ratio [3] is reported as 0.56. For the same molecule, the logP ([4]; read-out: logP) was 3.1.
With `O=NN(CCCl)C(=O)N[C@H]1CC[C@@H](C(=O)O)CC1` the LD10 [1] was 26 mg/kg, the ED50 [2] was 16 mg/kg and the selectivity ratio [3] was 0.62. For the same molecule, the logD [5] was -1.1.
`C[C@H]1S(=O)(=O)C[C@@H](NC(=O)N(CCCl)N=O)CS1(=O)=O` gave an LD10 [1] of 36 mg/kg, an ED50 [2] of 18 mg/kg and a selectivity ratio [3] of 0.5. It also gave a logP ([4]; read-out: logP) of -0.4.
In the case of `O=NN(CCCl)C(=O)N[C@H]1CC[C@H](CC(=O)O)CC1`, the LD10 [1] is reported as 40 mg/kg, the ED50 [2] is reported as 12 mg/kg and the selectivity ratio [3] is reported as 0.3. For the same molecule, the logD [5] was -0.6.
`O=NN(CCCl)C(=O)N[C@H]1CC[C@@H](NC(=O)N(CCCl)N=O)CC1` gave an LD10 [1] of 84 mg/kg, an ED50 [2] of 40 mg/kg and a selectivity ratio [3] of 0.48. The logP ([4]; read-out: logP) was 2.7.
`C[C@H]1SC[C@@H](NC(=O)N(CCCl)N=O)CS1` showed an LD10 [1] of 31 mg/kg, an ED50 [2] of 16 mg/kg and a selectivity ratio [3] of 0.53. It also gave a logP ([4]; read-out: logP) of 2.6.
Work on `CC(=O)O[C@H]1CC[C@H](NC(=O)N(CCF)N=O)CC1` yielded an LD10 [1] of 36 mg/kg, an ED50 [2] of 18 mg/kg and a selectivity ratio [3] of 0.5. It also gave a logP ([4]; read-out: logP) of 2.
Work on `CC(=O)O[C@H]1CC[C@H](NC(=O)N(CCCl)N=O)CC1` yielded an LD10 [1] of 45 mg/kg, an ED50 [2] of 18 mg/kg and a selectivity ratio [3] of 0.4. For the same molecule, the logP ([4]; read-out: logP) was 2.6.
With `CCOC(=O)[C@H]1CC[C@H](NC(=O)N(CCCl)N=O)CC1` the LD10 [1] was 33 mg/kg, the ED50 [2] was 17 mg/kg and the selectivity ratio [3] was 0.52. It also gave a logP ([4]; read-out: logP) of 3.1.
`O=NN(CCCl)C(=O)N[C@H]1CC[C@H](C(=O)O)CC1` showed an LD10 [1] of 30 mg/kg, an ED50 [2] of 17 mg/kg and a selectivity ratio [3] of 0.57. For the same molecule, the logD [5] was -1.1.
`COC(=O)[C@H]1CC[C@@H](NC(=O)N(CCCl)N=O)CC1` showed an LD10 [1] of 54 mg/kg, an ED50 [2] of 15 mg/kg and a selectivity ratio [3] of 0.28. The logP ([4]; read-out: logP) was 2.6.
In the case of `CO[C@H]1CC[C@@H](NC(=O)N(CCCl)N=O)CC1`, the LD10 [1] is reported as 38 mg/kg, the ED50 [2] is reported as 20 mg/kg and the selectivity ratio [3] is reported as 0.53. It also gave a logP ([4]; read-out: logP) of 2.4.
`O=NN(CCCl)C(=O)NC1CCCCC1` [LOMUSTINE] gave an LD10 [1] of 48 mg/kg, an ED50 [2] of 37 mg/kg and a selectivity ratio [3] of 0.77. The logP ([4]; read-out: logP) was 2.8.
`O=NN(CCF)C(=O)N[C@H]1CC[C@@H](C(=O)O)CC1` gave an LD10 [1] of 29 mg/kg, an ED50 [2] of 30 mg/kg and a logD [5] of -1.7.
With `O=NN(CCCl)C(=O)N[C@H]1CCCC[C@H]1Cl` (relative stereo) the LD10 [1] was 96 mg/kg, the ED50 [2] was 54 mg/kg and the selectivity ratio [3] was 0.56. For the same molecule, the logP ([4]; read-out: logP) was 2.7.
`O=NN(CCF)C(=O)N[C@H]1CC[C@H](C(=O)O)CC1` showed an LD10 [1] of 56 mg/kg, an ED50 [2] of 30 mg/kg and a logD [5] of -1.7.
Molecule `CCCCCC(C)NC(=O)N(CCCl)N=O` (stereo not given) has an LD10 [1] of 57 mg/kg, an ED50 [2] of 27 mg/kg and a logP ([4]; read-out: logP) of 3.8.
In the case of `O=NN(CCCl)C(=O)N[C@H]1CC[C@H](O)CC1`, the LD10 [1] is reported as 42 mg/kg, the ED50 [2] is reported as 14 mg/kg and the selectivity ratio [3] is reported as 0.4. It also gave a logP ([4]; read-out: logP) of 1.
Work on `C[C@H]1CCC[C@H](NC(=O)N(CCCl)N=O)C1` (relative stereo) yielded an LD10 [1] of 110 mg/kg, an ED50 [2] of 53 mg/kg and a selectivity ratio [3] of 0.48. For the same molecule, the logP [4] was 3.3.
In the case of `O=NN(CCCl)C(=O)N[C@H]1CC[C@H](C[C@H]2CC[C@H](NC(=O)N(CCCl)N=O)CC2)CC1`, the LD10 [1] is reported as 250 mg/kg, the ED50 [2] is reported as 96 mg/kg and the selectivity ratio [3] is reported as 0.38. It also gave a logP ([4]; read-out: logP) of 3.1.
For `C[C@H]1CC[C@H](NC(=O)N(CCF)N=O)CC1`, the LD10 [1] was 44 mg/kg, the ED50 [2] was 25 mg/kg and the selectivity ratio [3] was 0.57. The logP ([4]; read-out: logP) was 2.7.
In the case of `O=NN(CCCl)C(=O)NC(C(=O)O)C1CCCCC1` (stereo not given), the LD10 [1] is reported as 73 mg/kg, the ED50 [2] is reported as 50 mg/kg and the selectivity ratio [3] is reported as 0.63. It also gave a logD [5] of 0.
With `CC(=O)OC[C@H]1CC[C@H](NC(=O)N(CCF)N=O)CC1` the LD10 [1] was 57 mg/kg, the ED50 [2] was 45 mg/kg and the selectivity ratio [3] was 0.79. It also gave a logP ([4]; read-out: logP) of 2.5.
For `CO[C@H]1CC[C@H](NC(=O)N(CCCl)N=O)CC1`, the LD10 [1] was 44 mg/kg, the ED50 [2] was 23 mg/kg and the selectivity ratio [3] was 0.52. It also gave a logP ([4]; read-out: logP) of 2.4.
Molecule `O=NN(CCCl)C(=O)N[C@H]1CC[C@@H](CC(=O)O)CC1` has an LD10 [1] of 51 mg/kg, an ED50 [2] of 27 mg/kg and a selectivity ratio [3] of 0.53. For the same molecule, the logD [5] was -0.6.
